Source: US5814627A, “3, 5-disubstituted and 3, 4, 5-trisubstituted 2-isoxazolines and isoxazoles, process for their preparation and their use as pharmaceuticals” (Hoechst Aktienegesellschaft, priority 1994, dated 1998)

What was measured:
[1] = tested on: PAF-induced asthma attack; assay: Test 7: antiasthmatic effect, PAF-induced asthma attack; assay type: in vivo; settings: Cavia porcellus; i.d., 15 minutes before PAF; guinea pig
How it was run: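 Anesthetized guinea pigs given PAF through a jugular vein cannula; test compounds dosed i.v. through the same cannula 5 min before PAF, or intraduodenally via surgical cannula 15 min before. Bronchial width recorded by overflow pneumonogram before and after dosing; ED50 in mg/kg i.d. against the PAF-induced attack.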

[2] = tested on: IL-1 release from mononuclear cells; assay: Test 4: cytokine release from LPS-stimulated mononuclear cells, IL-1; assay type: cell-based; settings: Homo sapiens; IL-1; 10 μM; read-out: Test 4 residual activity (IL-1 release), percent of control
Protocol: (§1) Test 4. Stimulation of the cytokine release
(§2) Isolation of mononuclear cells from human blood
(§3) 10 ml of human blood, stabilized with 1 ml of 3.8% sodium citrate solution, were diluted with 10 ml of PM16 (Serva, Heidelberg) and underlaid with 15 ml of Lymphoprep (Dr. Molter GmbH, Heidelberg). The samples were centrifuged, at room temperature for 40 minutes, at 400×g (1600 rpm, Minifuge 2, Heraeus, Osterode). The mononuclear cells are visible as a white ring at the Lymphoprep/plasma interface. This ring was carefully removed with a syringe, diluted with an equal volume of PM16, and centrifuged for 10 minutes at 400×g. The sediment was washed with approximately 10 ml of RPMI1640 (+300 mg/l L-glutamine, Gibco, Eggenstein) (Wallis, 1986). After the cells had been resuspended in approximately 1 ml of RPMI1640 (+300 mg/l L-glutamine+25 mM HEPES+100 μg/ml streptomycin+100 μg/ml penicillin), the cell density was determined using a Coulter Counter JT (Coulter Diagnostics) and adjusted to 5*10^6 /ml. Typically, the cells are composed of 90% lymphocytes and 10% monocytes.
(§4) 230 μl of mononuclear cells were incubated, at 37° C.; 5% CO2 for 20-22 hours (5 hours in the case of IL-6), with 10 μl of test substance (10 μM in DMSO/water, 1/10) and 10 μl of lipopolysaccharide (LPS; 500 μg dissolved in 1 ml of DMSO and diluted 1/10 with water prior to beginning the test; from Salmonella abortus equi, Sigma, Deisenhofen). The samples were cooled down to 0° C. in an ice bath and centrifuged in a Sigma centrifuge (2 minutes; 2000 rpm). Aliquots of the supernatant are measured with an ELISA (Biermann, Bad Nauheim). The abbreviation IL stands for interleukin and TNF for tumor necrosis factor alpha.
(§5) The values in the table show the concentration of the test substance which was employed in μM and, besides this, the residual activity measured in percent based on the control, which was set to be 100%. The interleukin is additionally indicated in test 4.

[3] = tested on: IL-1α release from mononuclear cells; assay: Test 4: cytokine release from LPS-stimulated mononuclear cells, IL-1α; assay type: cell-based; settings: Homo sapiens, 10 μM, read-out: Test 4 residual activity (IL-1α release), percent of control
Protocol: as §1, §2, §3
as §4, with “([…])” for “(10 μM in DMSO/water, 1/10)”
as §5

adjuvant/arthritis model = assay: Test 6: antiarthritic effect in the adjuvant/arthritis model; assay type: in vivo, rat (Wistar-Lewis); settings: Rattus norvegicus, po, 408 h, 50 mg/kg orally, daily for 17 days; rat; read-out: Test 6 Paw volume (% inhibition)
Protocol: Male rats of a Wistar-Lewis strain (Mollegaard/Denmark) were used as experimental animals. The body weight is between 160 and 200 g. Subplantar injection of 0.1 ml of Freund's adjuvant (=6 mg of Mycobacterium butyricum suspension, Difco Lab./Detroit, Mich. USA, per ml of heavy white paraffin oil, Merck, Darmstadt) into the root of the tail resulted, on the 10th to 14th day of the experiment, in immunopathological processes and chronic inflammations, particularly in the form of arthritic and periarthritic symptoms, at other sites in the body (secondary lesions). The animals were fed ad libitum with the standard feed Altromin-R, from Altrogge, Lage, and provided with tap water. The animals were given 60 mg of codein per kg as an analgesic from the 14th day to the end of the experiment. The test substances were administered orally as a CMC suspension, in an injection volume of 1 ml/100 g of body weight, on each day (in all for 17 days), beginning on the day of the adjuvant administration. The volumes of each of the hind paws, and the body weight, were measured on the first and on the 18th day of the experiment. Diminution in the increase of paw volume, as compared with the untreated control group, served as the criterion of activity, with the two hind paws being averaged.

[4] = tested on: IL-1β release from mononuclear cells; assay: Test 4: cytokine release from LPS-stimulated mononuclear cells, IL-1β; assay type: cell-based; settings: Homo sapiens, 10 μM, read-out: Test 4 residual activity (IL-1β release), percent of control
Protocol: as §1, §2, §3, §4, §5

SMILES	ED50 [1] [mg/kg]	activity at 10 µM [2] [%]	activity at 10 µM [3] [%]	inhibition in vivo at 50 mg/kg (adjuvant/arthritis model) [%]	activity at 10 µM [4] [%]
CC(C)(C)c1cc(C2=NOC(c3ccccn3)C2)cc(C(C)(C)C)c1O (stereo not shown) [Example 9]	~50	73			
CC(O)c1cc(-c2cc(C(C)(C)C)c(O)c(C(C)(C)C)c2)no1 (stereo not shown) [Example 28]			93	74	
CC(C)(C)c1cc(-c2cc(CNS(=O)(=O)C(F)(F)F)on2)cc(C(C)(C)C)c1O [Example 49, N-(3-(4-Hydroxy-3,5-di-tert-butylphenyl)isoxazol-5-ylmethyl)trifluoromethanesulfonamide]	~50				
CC(C)(C)c1cc(C2CC(CCC(=O)O)=NO2)cc(C(C)(C)C)c1O (stereo not shown) [Example 63, 5-(4-Hydroxy-3,5-di-tert-butylphenyl)-2-isoxazolin-3-ylpropionic acid]			75		77
